Results from paper PMC2033597, “The Arg-Gly-Asp-containing peptide, rhodostomin, inhibits in vitro cell adhesion to extracellular matrices and platelet aggregation caused by saos-2 human osteosarcoma cells” (British Journal of Cancer, 1995).
Like-named read-outs stand apart in the source and are kept apart here.

What was measured:
[1] = test system: Saos-2 tumour cell-induced platelet aggregation in heparinised human platelet-rich plasma; format: cell-based; settings: for IC50: heparinised human PRP preincubated with peptide at 37C for 2 min, then Saos-2 cells, n = 6, read-out: IC50 for inhibition of Saos-2 TCIPA
Description: Brils JownW d Canmer (15) 71, 265-270 ? 1995 S9okon Press Al rghts reserved 0007-0920/95 $9.00 V The Arg-Gly-Asp-containing peptide, rhodostomin, inhibits in vitro cell adhesion to extracellular matrices and platelet aggregation caused by Saos-2 human osteosarcoma cells H-S Chiang', R-S Yang2 and T-F Huang' 'Pharmacological Institute and 'Department of Orthopaedics, College of Medicine, National Taiwan UniversitY, Taipei, Taiwan. Sumary Saos-2 cells, derived from a primary human osteosarcoma, caused dose-dependent platelet aggrega- tion in heparinised human platelet-rich plasma. […] The cell suspension shortened the plasma recalcification times of normal, factor VIII-deficient and factor IX-deficient human plasmas in a dose- dependent manner. […] Moreover, a monoclonal antibody (MAb) against human tissue factor completely abolished TCIPA. […] Keywords: osteosarcoma; platelet aggregation; tissue factor: integrin; extracellular matrix: Arg-Gly-Asp- containing peptide The formation of a metastatic lesion is the result of a com- plex series of events called the 'metastatic cascade'. Following intravasation, circulating tumour cells interact with a variety of host cells such as effectors of the cellular immune res- ponses, endothelial cells and platelets. The interaction of tumour cells and host platelets may promote the metastatic process (Honn et al., 1992). Indeed, there is evidence that the incidence of lymph node metastasis caused by ten cell lines, from rat renal carcinoma, in vivo correlates well with their ability to induce platelet aggregation in vitro (Pearlstein et al., 1980). Platelets may enhance tumour cell adhesion to endothelial cells and subendothelial surfaces during the haematogenous metastasis process. The cell-cell or cell-extracellular matrix (ECM) interactions of both normal and tumour cells have been proven to be mediated by a variety of plasma memb- rane receptors including the integrin family (Hynes et al., 1987). Integrins are transmembrane proteins which link the ECM with the cell cytoskeleton. Such linkage enables cellular attachment to substrata and forms focal adhesion plaques in distinct plasma membrane regions which establish contact with the matrix (Grunicke, 1990). […] Purified components from snake venoms have been widely studied and found to affect platelet function, including trigramin-like anti-platelet peptides (Huang et al., 1987a, 1991a,b; Shebuski et al., 1989; Rucinski et al., 1990). Trigra- min, an RGD-containing peptide purified from venom of the Trimeresurus gramineus snake, is a specific antagonist of platelet membrane […] (Huang et al., 1987a, 1989). […] These peptides all contain the RGD sequence, are rich in cysteine and bind with high affinity to the surface of platelets. The in vitro metastatic characterisation of osteosarcoma is not yet well understood. In the present study, we examined in vitro the TCIPA caused by Saos-2 human osteosarcoma cells. We probed Saos-2 TCIPA with a variety of inhibitors and monoclonal antibodies in order to characterise fully the mechanism of this phenomenon. […] Materals and metbods Materials Saos-2 human osteosarcoma cells were obtained from ATCC (American Type Culture Collection) Laboratory. Crude venom of Agkistrodon rhodostoma (or Calloselasma rhodos- toma) was purchased from Latoxan (Rosans, France) and stored at -20?C. Rhodostomin was purified from venom of A. rhodostoma as previously described (Huang et al., 1989, 1990). GRGDS was purchased from Peninsula Laboratories, CA, USA. Gly-Arg-Gly-Glu-Ser (GRGES) was synthesised by the Biochemical Institute, College of Medicine, National Taiwan University. Apyrase (grade III), heparin, hirudin (grade IV from leeches), fibronectin (from bovine plasma), vitronectin (from human plasma), laminin (from basement membrane of mouse sarcoma), collagen type I (from calf skin) and type IV were obtained from Sigma (St Louis, MO, USA). Tissue thromboplastin reagent was Simplastin Excel standard (Organon Teknika, NC, USA). […]

[2] = test system: Saos-2 cell adhesion to RGD-dependent ECM; experiment: Saos-2 cell adhesion to RGD-dependent ECM (overall); format: cell-based, human; settings: fibronectin, vitronectin, collagen type I
Description: Brils JownW d Canmer (15) 71, 265-270 ? 1995 S9okon Press Al rghts reserved 0007-0920/95 $9.00 V The Arg-Gly-Asp-containing peptide, rhodostomin, inhibits in vitro cell adhesion to extracellular matrices and platelet aggregation caused by Saos-2 human osteosarcoma cells H-S Chiang', R-S Yang2 and T-F Huang' 'Pharmacological Institute and 'Department of Orthopaedics, College of Medicine, National Taiwan UniversitY, Taipei, Taiwan. Sumary Saos-2 cells, derived from a primary human osteosarcoma, caused dose-dependent platelet aggrega- tion in heparinised human platelet-rich plasma. […] The cell suspension shortened the plasma recalcification times of normal, factor VIII-deficient and factor IX-deficient human plasmas in a dose- dependent manner. […] Moreover, a monoclonal antibody (MAb) against human tissue factor completely abolished TCIPA. […] Keywords: osteosarcoma; platelet aggregation; tissue factor: integrin; extracellular matrix: Arg-Gly-Asp- containing peptide The formation of a metastatic lesion is the result of a com- plex series of events called the 'metastatic cascade'. Following intravasation, circulating tumour cells interact with a variety of host cells such as effectors of the cellular immune res- ponses, endothelial cells and platelets. The interaction of tumour cells and host platelets may promote the metastatic process (Honn et al., 1992). […]

rhodostomin
IC50 [1]: 0.03 µM
Potency relative to GRGDS in inhibiting TCIPA, on a molar basis ([1]; ratio of IC50 values): about 18 000 fold
Inhibition of Saos-2 TCIPA ([1]; rhodostomin, pretreatment of platelets): complely inhibited
Potency relative to GRGDS in inhibiting Saos-2 cell adhesion to RGD-dependent ECM, on a molar basis [2]: ~1000 fold

apyrase
Inhibition of Saos-2 TCIPA ([1]; apyrase 0.5 U ml-1 final concentration in PRP, preincubated at 37C for 2 min): did not inhibit
Lag phase preceding TCIPA ([1]; apyrase 0.5 U ml-1 in PRP): prolonged

heparin
Lag phase preceding platelet aggregation ([1]; heparin raised from 1 to 6 units ml-1 (data not shown)): markedly prolonged

Gly-Arg-Gly-Glu-Ser [GRGES, peptide synthesised by the Biochemical Institute, National Taiwan University]
Inhibition of Saos-2 TCIPA ([1]; GRGES 1 mg ml-1, pretreatment of platelets): no significant effect

N=C(N)NCCC[C@H](NC(=O)CN)C(=O)NCC(=O)N[C@@H](CC(=O)O)C(=O)N[C@@H](CO)C(=O)O [GRGDS, Gly-Arg-Gly-Asp-Ser]
IC50 [1]: 560 µM

hirudin
Inhibition of Saos-2 TCIPA ([1]; hirudin 5 U ml-1, PRP preincubated at 37C for 2 min): completely inhibited
